Test [1] deals with MDA-MB-436 human breast cancer xenografts. Briefly: Antitumor activity against subcutaneous MDA-MB-436 human breast cancer xenografts in SCID mice (three studies). In kind it is in vivo. As for the experimental part:
MDA-MB-436 human triple negative breast cancer cells are BRCA1 mutant and PTEN null. Cells were maintained in monolayer cultures in RPMI-1640 growth medium supplemented with 10% fetal bovine serum at 37° C. in a 5% CO2 humidified incubator. On the day of inoculation, cells were harvested by trypsinization, washed, and resuspended in ice-cold PBS. Female immunodeficient SCID mice were inoculated subcutaneously near the right axillary area with MDA-MB-436 cells (5×10^6) in a 1:1 ratio (50 μL each) with Matrigel™ in a volume of 0.1 mL in phosphate buffered saline, using a 26-gauge needle. A total of 125 mice, approximately 6 weeks old were implanted with MDA-MB-436 cells.
E7449, carboplatin and E7389 were evaluated as single agents and in combination for antitumor activity against MDA-MB-436 human breast cancer xenografts in SCID mice. Three separate studies were performed. The first experiment consisted of a vehicle control group, an E7449 single agent group, two groups treated with single agent E7389 and 2 combination drug-treated groups (Table 1). Thirty mice were inoculated with MDA-MB-436 cells and on Day 58 following implantation, tumor volumes were measured and mice were randomized into the 6 treatment groups based on tumor volume (average of 300 mm^3). Following randomization, drug treatment was initiated. Groups A to D were composed of 5 mice and groups E and F consisted of 4 mice for a total of 28 mice on the first day of treatment. E7449 was formulated in 0.5% methyl cellulose and orally administered once daily for 28 days (starting on Day 58) at 60 mg/kg based on body weight at 0.1 mL per 10 g. E7389 was formulated in saline and was intravenously administered once every 4 days, 4 times (Day 58, 62, 66, and 70) at a dosage of 0.4 or 1.6 mg/kg as single agent or in combination with E7449, based on body weight at 0.1 mL per 10 g. The control group was treated with oral vehicle (0.5% methyl cellulose in water) daily and intravenous vehicle (saline) once every 4 days, 4 times. E7449 or vehicle was administered first and when dosing of all animals was complete, E7389 was administered to animals receiving the combination.
The second experiment consisted of a vehicle control group, an E7449 single agent group, 2 groups treated with single agent carboplatin, and 2 combination drug-treated groups (Table 2). Thirty-five mice were inoculated with MDA-MB-436 cells and on Day 57, following implantation, tumor volumes were measured and mice were randomized into 6 treatment groups based on tumor volume (average of 250 mm^3). Following randomization drug treatment was initiated. Groups A to D were composed of 5 mice and groups E and F consisted of 6 mice for a total of 32 mice on the first day of treatment. E7449, formulated in 0.5% methyl cellulose was orally administered daily for 28 days (starting on Day 57), at 60 mg/kg based on body weight at 0.1 mL per 10 g. Carboplatin was formulated in saline and was intravenously administered once on the first day of treatment (Day 57) at a dosage of 15 or 60 mg/kg as a single agent or in combination with E7449 based on body weight at 0.1 mL per 10 g. The control group was treated with oral vehicle (0.5% methyl cellulose in water) daily and intravenous vehicle (saline) once on Day 57. E7449 or vehicle was administered first, and when dosing of all animals was complete carboplatin was administered to animals receiving the combination.
The third experiment consisted of a vehicle control group, 3 groups treated with single agent E7449, E7389, or carboplatin, 3 groups treated with double combinations of E7449+E7389, E7449+carboplatin, and E7389+carboplatin and a group treated with the three-drug combination (Table 3). Sixty mice were inoculated with MDA-MB-436 cells and on Day 41 following implantation, tumor volumes were measured and mice were randomized into 8 treatment groups based on tumor volume (average of 250 mm^3). Following randomization drug treatment was initiated.
A general note: A xenograft is tissue or cells of one species grown in another, often human tumour cells in immunodeficient mice.

In test [2] the test system is MDA-MB-231 human breast cancer xenografts. The experiment in a line: Antitumor activity against subcutaneous MDA-MB-231 human breast cancer xenografts in athymic mice (two studies). In kind it is in vivo. The settings on record: carboplatin 15 and 60 mg/kg IV QDx1, single agent. How it is done:
MDA-MB-231 human triple negative breast cancer cells are wild type for BRCA1 and 2 and PTEN. Cells were maintained in monolayer cultures in RPMI-1640 growth medium supplemented with 10% fetal bovine serum at 37° C. in a 5% CO2 humidified incubator. On the day of inoculation, cells were harvested by trypsinization, washed, and resuspended in ice-cold PBS. Female immunodeficient athymic mice were inoculated subcutaneously near the right axillary area with MDA-MB-231 cells (5×10^6) in a 1:1 ratio (50 μL each) with Matrigel™ in a volume of 0.1 mL in phosphate buffered saline, using a 26-gauge needle. A total of 94 mice, approximately 6 weeks old were implanted with MDA-MB-231 cells.
E7449, carboplatin and E7389 were evaluated as single agents and in combination for antitumor activity against MDA-MB-231 human breast cancer xenografts in athymic mice. The first experiment consisted of a vehicle control group, an E7449 single agent group, 2 groups treated with single agent E7389 and 2 combination drug-treated groups (Table 5). Thirty-nine mice were inoculated with MDA-MB-231 cells and on Day 21 following implantation, tumor volumes were measured and mice were randomized into the 6 treatment groups based on tumor volume (average of 300 mm^3). Following randomization drug treatment was initiated. Each group was composed of 5 mice for a total of 30 mice on the first day of treatment. E7449 was formulated in 0.5% methyl cellulose and orally administered once daily for 28 days at 100 mg/kg based on body weight at 0.1 mL per 10 g. E7389 was formulated in saline and was intravenously administered once every 4 days, 4 times (Day 21, 25, 29, and 33) at a dosage of 0.05 or 0.1 mg/kg as single agent or in combination with E7449, based on body weight at 0.1 mL per 10 g. The control group was treated with oral vehicle (0.5% methyl cellulose in water) daily and intravenous vehicle (saline) once every 4 days, 4 times. E7449 or vehicle was administered first and when dosing of all animals was complete E7389 was administered to animals receiving the combination.
The second experiment consisted of a vehicle control group, 2 groups treated with single agent E7449, 2 groups treated with single agent carboplatin and 3 combination drug-treated groups (Table 6). Fifty five mice were inoculated with MDA-MB-231 cells and on Day 18 following implantation, tumor volumes were measured and mice were randomized into 8 treatment groups based on tumor volume (average of 300 mm^3). Following randomization drug treatment was initiated. Each group consisted of 5 mice for a total of 40 mice on the first day of treatment. E7449, formulated in 0.5% methyl cellulose was orally administered daily for 28 days, at 60 or 100 mg/kg based on body weight at 0.1 mL per 10 g. Carboplatin was formulated in saline and was intravenously administered once on the first day of treatment (Day 18) at a dosage of 15 or 60 mg/kg as a single agent or in combination with E7449 based on body weight at 0.1 mL per 10 g. The control group was treated with oral vehicle (0.5% methyl cellulose in water) daily and intravenous vehicle (saline) once on Day 18. E7449 or vehicle was administered first and when dosing of all animals was complete carboplatin was administered to animals receiving the combination.
Drug treatment was initiated 21 or 18 days post tumor implantation, in the E7389 and carboplatin combination studies respectively, and continued for 28 days. […]

With `N.N.O=C([O-])C1(C(=O)[O-])CCC1.[Pt+2]` [carboplatin], the “antitumor effect (tumor volume)” value is recorded as “Dose-dependent antitumor activity” in test [1] (E7449+carboplatin study, carboplatin 15 and 60 mg/kg IV QDx1, single agent); “statistically significant tumor growth inhibition” in test [1] (triple combination study, carboplatin 7.5 mg/kg IV QDx1, single agent); “Modest antitumor activity” in test [2].

Source of the values: US10238630B2, “Use of eribulin and poly (ADP ribose) polymerase (PARP) inhibitors as combination therapy for the treatment of cancer” (Eisai R&D Management Co., Ltd., priority 2014, dated 2019).
